The numbers were not newly measured in patent US20090117079A1, “METHODS AND MATERIALS FOR TREATING OR PREVENTING DISEASES/DISORDERS MEDIATED BY ALCOHOL DEHYDROGENASE” (priority 2007, published 2009), which cites them from elsewhere.

In this data set the test system is alcohol dehydrogenase (ADH I). The conditions noted are these: competitive inhibition of ADH I in humans; affinity of ethanol relative to methanol.

With `CCO` [ethanol], the ethanol/methanol affinity ratio was 10/1.
